# From EP4755878A1, “PHOTOCHROMIC COMPOUND, PHENOL DERIVATIVE, CURABLE COMPOSITION, OPTICAL ARTICLE, LENS, AND EYEGLASS” (TOKUYAMA CORPORATION, priority 2023, dated 2025)
# Legend:
# [1] = Photochromic properties of photochromic cured product made by kneading method; assay type: physicochemical; conditions: for Maximum absorption wavelength: 1 mm, after color development, second absorption wavelength (lower line of pair); for Color developing density at 23°C: absorbance difference after 240 seconds irradiation at 23°C; for Color developing density at 35°C: absorbance difference after 240 seconds irradiation at 35°C
# Description: First, the photochromic compound obtained in Example 1, additives, and polymerizable compounds were mixed to obtain a curable composition. As the polymerizable compounds, a blend of the following polymerizable monomers in combination was used. • 1,3-Bis(isocyanatomethyl)cyclohexane: 36.7 parts by mass Pentaerythritol tetrakis(3-mercaptopropionate): 39.4 parts by mass • Polyoxyethylene polyoxypropylene lauryl ether (WONDERSURF 140 from Aoki Oil Industrial Co., Ltd.): 17.4 parts by mass 1-Decanethiol: 2.8 parts by mass • RX-1 prepared according to the method described in Patent Document 12: 3.8 parts by mass Note that in the curable composition, the photochromic compound was added to be 0.106 mmol taking the total amount of the polymerizable monomers as 100 g.
# The following additives were used. Dimethyltin dichloride: 0.05 parts by mass • Irganox 245 from BASF Japan Ltd.: 0.1 parts by mass • 2-Ethylhexyl 4-methoxycinnamate: 0.6 parts by mass
# The prepared curable composition was sufficiently degassed, and then injected into a glass mold provided with a gap of 1 mm, and the curable composition was polymerized via casting polymerization. […] After the polymerization, the cured product was removed from the glass mold, to obtain photochromic cured product having a thickness of 1 mm. The resulting photochromic cured product was evaluated in the same manner as in Example 23.
# (Examples 51 to 60, and Comparative Examples 11 to 14) Photochromic cured products were formed using the photochromic compound shown in Table 6 in the same manner as in Example 50.
# [2] = Photochromic properties of photochromic laminate (plastic lens) made by coating method; assay type: physicochemical; conditions: for Color developing density at 23°C: absorbance difference after 240 seconds irradiation at 23°C; for Color developing density at 35°C: absorbance difference after 240 seconds irradiation at 35°C; for Maximum absorption wavelength: after color development, second absorption wavelength (lower line of pair)
# Description: First, the photochromic compound obtained in Example 1 above, a photoinitiator, and polymerizable compounds were mixed to obtain a curable composition.
# As the polymerizable compounds, a blend of the following radically-polymerizable monomers in combination was used.
# • Polyethylene glycol dimethacrylate (average molecular weight: 736): 42 parts by mass • Polyethylene glycol dimethacrylate (average molecular weight: 536): 12 parts by mass • Trimethylolpropane trimethacrylate: 38 parts by mass • γ-Methacryloyloxypropyltrimethoxysilane: 2 parts by mass • Glycidyl methacrylate: 1 part by mass.
# Note that in the curable composition, the photochromic compound obtained in Example 1 above was added to be 0.25 mmol taking the total amount of the radically-polymerizable monomers as 100 g. The following were used as additives.
# (stabilizer, Irganox 245): 1 part by mass Bis(1,2,2,6,6-pentamethyl-4-piperidyl) sebacate: 3 parts by mass Leveling agent from DuPont Toray Specialty Materials K.K. (L7001): 0.1 parts by mass.
# Note that the above-mentioned additives are described with blending ratios taking a total of the radically-polymerizable monomers as 100 parts by mass.
# Using this curable composition, a photochromic laminate was obtained by a lamination process described below with the polymerization described below being carried out.
# First, a thiourethane plastic lens with a center thickness of 2 mm and a refractive index of 1.60 was prepared as an optical substrate. Note that the thiourethane plastic lens had been alkaline-etched beforehand in a 10% aqueous sodium hydroxide solution at 50°C for 5 minutes, and then thoroughly washed with distilled water.
# A spin coater (1H-DX2, manufactured by MIKASA CO., LTD) was used to coat a surface of the above-mentioned plastic lens with a moisture-curable primer (product name: TR-SC-P, manufactured by Tokuyama Corporation) at a rotation speed of 70 rpm for 15 seconds, followed by at 1000 rpm for 10 seconds. Then, about 2 g of the photochromic curable composition obtained as above was spin-coated at a rotation speed of 60 rpm for 40 seconds, followed by at 600 rpm for 10 to 20 seconds so as to achieve a photochromic coating layer with a film thickness of 40 µm.
# The lens having the surface coated with the photochromic curable composition (photochromic coating layer) was irradiated with light for 90 seconds in a nitrogen gas atmosphere using a metal halide lamp with an output of 200 mW/cm^2 to cure the coating film. The coating was then further heated at 110°C for 1 hour to produce a photochromic laminate with a photochromic layer.
# Photochromic laminates were produced using the photochromic compounds obtained in Examples 2 to 19 in the same manner as in Example 20.
# Photochromic laminates were obtained in the same manner as in Example 20 using photochromic compounds represented by the following formulas (A) to (F). [drawing 143] [drawing 144] [drawing 145] [drawing 146] [drawing 147] [drawing 148] [drawing 149] [drawing 150]
# The resulting photochromic laminates were evaluated by the methods described below.
# Table 3 summarizes the results of Examples 20, 32, and 34, and Comparative Examples 1 to 6, and Table 4 summarizes the results of Examples 21 to 31, 33, and 35 to 38. The relationship between the fading half-life at 23°C and the color development ratio at the higher temperature of the photochromic laminates according to Examples and Comparative Examples are shown in a graph in FIG. 1.
# Photochromic laminates were formed using the photochromic compound obtained in Examples 61 to 71 in the same manner as in Example 20.
# [3] = Photochromic properties of photochromic layer (binder sheet) made by binder method; conditions: for Color developing density at 23°C: absorbance difference after 240 seconds irradiation at 23°C; for Color developing density at 35°C: absorbance difference after 240 seconds irradiation at 35°C; for Maximum absorption wavelength: after color development, second absorption wavelength (lower line of pair)
# Description: This is the maximum absorption wavelength after color development determined by a spectrophotometer manufactured by Otsuka Electronics Co., Ltd. (instantaneous multichannel photo detector MCPD3000) and was used as an index of a color tone upon color development.
# This is a difference between an absorbance {ε(240)} after irradiation with light at the above-mentioned maximum absorption wavelength at 23°C for 240 seconds and an absorbance ε(0) when not irradiated with light, and was used as an index of a color developing density. The higher this value is, the better photochromic property is.
# This is a difference between an absorbance {ε(240)} after irradiation with light at first and second absorption wavelengths at 35°C for 240 seconds and an absorbance ε(0) when not irradiated with light, and was used as an index of a color developing density. The higher this value is, the better photochromic property is.
# Color developing density at 35°C (A35) /color developing density at 23°C (A23) × 100(%). The higher this value is, the smaller the difference in color developing density between the higher temperature and the lower temperature is, and the smaller the temperature dependence is.
# This is the period of time required for the absorbance at a maximum absorption wavelength of a sample to decrease to 1/2 of {ε(240)-ε(0)}, when light irradiation is stopped after the sample had been irradiated with light at 23°C for 240 seconds, and was used as an index of a color fading rate. The shorter this period of time is, the higher the color fading rate is.
# A binder sheet was made according to the following method. […] As the first and second optical sheets, polycarbonate sheets with a thickness of 400 µm were used.
# Note that the photochromic compound was added to be 0.25 mmol relative to 100 parts by mass of the terminally non-reactive urethaneurea resin.
smiles,measurement,setting,value
"COc1ccc(C2(c3ccc(OC)cc3)C=Cc3c4c(c5ccc(OC)cc5c3O2)-c2ccc(OC)cc2C4(C)C)cc1 [Formula (C), reference compound]",Maximum absorption wavelength,[1],600 nm
same,Color developing density at 23°C,[1]; first absorption wavelength,0.74 -
same,Color developing density at 23°C,[1]; second absorption wavelength,1.07 -
same,Color developing density at 35°C,[1]; first absorption wavelength,0.54 -
same,Color developing density at 35°C,[1]; second absorption wavelength,0.81 -
same,Color developing density at 23°C,[2]; first absorption wavelength,0.71 -
same,Color developing density at 23°C,[2]; second absorption wavelength,1.04 -
same,Color developing density at 35°C,[2]; first absorption wavelength,0.48 -
same,Color developing density at 35°C,[2]; second absorption wavelength,0.74 -
same,Maximum absorption wavelength,[2],593 nm
same,Color developing density at 23°C,[3]; first absorption wavelength,0.73 -
same,Color developing density at 23°C,[3]; second absorption wavelength,1.06 -
same,Color developing density at 35°C,[3]; first absorption wavelength,0.51 -
same,Color developing density at 35°C,[3]; second absorption wavelength,0.75 -
same,Maximum absorption wavelength,[3],594 nm
COc1ccc(C2(c3ccc(N4CCOCC4)cc3)C=Cc3c4c(c5ccc(OC)cc5c3O2)-c2ccc(N(C)c3ccccc3)cc2C42CCCCCCC2)cc1 (stereo not drawn) [Formula (4-3)],Maximum absorption wavelength,[1],631 nm
same,Color developing density at 23°C,[1]; first absorption wavelength,0.69 -
same,Color developing density at 23°C,[1]; second absorption wavelength,1.17 -
same,Color developing density at 35°C,[1]; first absorption wavelength,0.49 -
same,Color developing density at 35°C,[1]; second absorption wavelength,0.84 -
same,Color developing density at 23°C,[2]; first absorption wavelength,0.68 -
same,Color developing density at 23°C,[2]; second absorption wavelength,1.14 -
same,Color developing density at 35°C,[2]; first absorption wavelength,0.48 -
same,Color developing density at 35°C,[2]; second absorption wavelength,0.81 -
same,Maximum absorption wavelength,[2],626 nm
same,Color developing density at 23°C,[3]; first absorption wavelength,0.68 -
same,Color developing density at 23°C,[3]; second absorption wavelength,1.16 -
same,Color developing density at 35°C,[3]; first absorption wavelength,0.47 -
same,Color developing density at 35°C,[3]; second absorption wavelength,0.80 -
same,Maximum absorption wavelength,[3],627 nm
COCCCCC1(CCCCOC)c2cc(N(C)c3ccccc3)ccc2-c2c1c1c(c3cc(OC)c(OC)cc23)OC(c2ccc(OC)cc2)(c2ccc(OC)cc2)C=C1 [Formula (2-7)],Maximum absorption wavelength,[1],615 nm
same,Color developing density at 23°C,[1]; first absorption wavelength,1.50 -
same,Color developing density at 23°C,[1]; second absorption wavelength,0.86 -
same,Color developing density at 35°C,[1]; first absorption wavelength,1.12 -
same,Color developing density at 35°C,[1]; second absorption wavelength,0.66 -
same,Color developing density at 23°C,[2]; first absorption wavelength,1.43 -
same,Color developing density at 23°C,[2]; second absorption wavelength,0.83 -
same,Color developing density at 35°C,[2]; first absorption wavelength,1.06 -
same,Color developing density at 35°C,[2]; second absorption wavelength,0.62 -
same,Maximum absorption wavelength,[2],608 nm
same,Color developing density at 23°C,[3]; first absorption wavelength,1.47 -
same,Color developing density at 23°C,[3]; second absorption wavelength,0.85 -
same,Color developing density at 35°C,[3]; first absorption wavelength,1.06 -
same,Color developing density at 35°C,[3]; second absorption wavelength,0.61 -
same,Maximum absorption wavelength,[3],609 nm
COCC1(COC)c2cc(N(C)c3ccccc3)ccc2-c2c1c1c(c3ccccc23)OC(c2ccc(OC)cc2)(c2ccc(OC)c(F)c2)C=C1 (stereo not drawn) [Formula (16-3)],Maximum absorption wavelength,[1],599 nm
same,Color developing density at 23°C,[1]; first absorption wavelength,0.56 -
same,Color developing density at 23°C,[1]; second absorption wavelength,0.92 -
same,Color developing density at 35°C,[1]; first absorption wavelength,0.38 -
same,Color developing density at 35°C,[1]; second absorption wavelength,0.65 -
same,Color developing density at 23°C,[2]; first absorption wavelength,0.53 -
same,Color developing density at 23°C,[2]; second absorption wavelength,0.89 -
same,Color developing density at 35°C,[2]; first absorption wavelength,0.36 -
same,Color developing density at 35°C,[2]; second absorption wavelength,0.61 -
same,Maximum absorption wavelength,[2],593 nm
same,Color developing density at 23°C,[3]; first absorption wavelength,0.55 -
same,Color developing density at 23°C,[3]; second absorption wavelength,0.90 -
same,Color developing density at 35°C,[3]; first absorption wavelength,0.37 -
same,Color developing density at 35°C,[3]; second absorption wavelength,0.61 -
same,Maximum absorption wavelength,[3],595 nm
"COc1ccc(C2(c3ccc(OC)cc3)C=Cc3c4c(c5ccc(OC)cc5c3O2)-c2ccc(N3CCCCC3)cc2C4(C)C)cc1 [Formula (D), reference compound]",Maximum absorption wavelength,[1],625 nm
same,Color developing density at 23°C,[1]; first absorption wavelength,0.80 -
same,Color developing density at 23°C,[1]; second absorption wavelength,1.18 -
same,Color developing density at 35°C,[1]; first absorption wavelength,0.62 -
same,Color developing density at 35°C,[1]; second absorption wavelength,0.94 -
same,Color developing density at 23°C,[2]; first absorption wavelength,0.78 -
same,Color developing density at 23°C,[2]; second absorption wavelength,1.14 -
same,Color developing density at 35°C,[2]; first absorption wavelength,0.57 -
same,Color developing density at 35°C,[2]; second absorption wavelength,0.86 -
same,Maximum absorption wavelength,[2],617 nm
same,Color developing density at 23°C,[3]; first absorption wavelength,0.80 -
same,Color developing density at 23°C,[3]; second absorption wavelength,1.17 -
same,Color developing density at 35°C,[3]; first absorption wavelength,0.58 -
same,Color developing density at 35°C,[3]; second absorption wavelength,0.88 -
same,Maximum absorption wavelength,[3],617 nm
CCCCOc1ccc(C2(c3ccc(OC)cc3)C=Cc3c4c(c5ccc(C)cc5c3O2)-c2ccc(N3CCOc5ccccc53)cc2C4(CCCC(F)(F)F)CCCC(F)(F)F)cc1 (stereo not drawn) [Formula (3-3)],Maximum absorption wavelength,[1],588 nm
same,Color developing density at 23°C,[1]; first absorption wavelength,0.94 -
same,Color developing density at 23°C,[1]; second absorption wavelength,1.36 -
same,Color developing density at 35°C,[1]; first absorption wavelength,0.73 -
same,Color developing density at 35°C,[1]; second absorption wavelength,1.06 -
same,Color developing density at 23°C,[2]; first absorption wavelength,0.91 -
same,Color developing density at 23°C,[2]; second absorption wavelength,1.33 -
same,Color developing density at 35°C,[2]; first absorption wavelength,0.69 -
same,Color developing density at 35°C,[2]; second absorption wavelength,1.02 -
same,Maximum absorption wavelength,[2],581 nm
same,Color developing density at 23°C,[3]; first absorption wavelength,0.94 -
same,Color developing density at 23°C,[3]; second absorption wavelength,1.34 -
same,Color developing density at 35°C,[3]; first absorption wavelength,0.68 -
same,Color developing density at 35°C,[3]; second absorption wavelength,1.00 -
same,Maximum absorption wavelength,[3],580 nm
"COc1ccc(C2(c3ccc(OC)cc3)C=Cc3c4c(c5ccc(OC)cc5c3O2)-c2ccccc2C4(C)C)cc1 [Formula (A), reference compound]",Maximum absorption wavelength,[1],578 nm
same,Color developing density at 23°C,[1]; first absorption wavelength,0.72 -
same,Color developing density at 23°C,[1]; second absorption wavelength,0.91 -
same,Color developing density at 35°C,[1]; first absorption wavelength,0.48 -
same,Color developing density at 35°C,[1]; second absorption wavelength,0.61 -
same,Color developing density at 23°C,[2]; first absorption wavelength,0.69 -
same,Color developing density at 23°C,[2]; second absorption wavelength,0.87 -
same,Color developing density at 35°C,[2]; first absorption wavelength,0.44 -
same,Color developing density at 35°C,[2]; second absorption wavelength,0.55 -
same,Maximum absorption wavelength,[2],569 nm
same,Color developing density at 23°C,[3]; first absorption wavelength,0.71 -
same,Color developing density at 23°C,[3]; second absorption wavelength,0.90 -
same,Color developing density at 35°C,[3]; first absorption wavelength,0.46 -
same,Color developing density at 35°C,[3]; second absorption wavelength,0.58 -
same,Maximum absorption wavelength,[3],569 nm
